Data reported in US9012419B2, “Methods and compositions related to eosinophil regulation” (University of Utah Research Foundation, priority 2006, dated 2015).
“And” between values parts separate entries of the source, which are not always exact repeats. Equal values may be shown once. Where a name gives a salt, the structure may show the parent alone. Read-outs that look alike come from different tables or passages of the source.

Key:
[1] = test system: IL-5 stimulated TF-1 cells; assay: TF-1 cell proliferation assay, IL-5 stimulated cultures; type: cell-based, human; conditions: for Di: Di=EPO IC-50/IL5 IC-50; for IL-5 IC-50 compared with lidocaine: in words
Procedure: (§1) Controls and test compounds were assayed in serial dilutions, ranging from 1 mM to 0.5 uM, against TF-1 cell proliferation. Compounds were solublized in DMSO in 0.2M solutions followed by serial dilutions with the culture media.
(§2) Each dilution of the compounds was tested in triplicate in a 96 well, flat bottom tissue culture plate with 10,000 TF-1 cells per well for their abilities to inhibit IL-5 and/or EPO stimulated cultures. Wells without cells were used for the background signals. Both IL-5 and EPO stimulated cell cultures were tested in assays performed on the same day. Cultures were incubated for 72 hours in a 37° C. humidified incubator. At the end of the incubation, CellTiter AQueous One Solution (Promega, Madison, Wis.) was added for 1 to 3 hours, depending on the rate of color change. Following sufficient color change, the plates were read on a spectrophotometer (SpectraMax 190, Molecular Devices) at 490 nm.
(§3) IC-50 and […] values were calculated using the software SOFTmax Pro (Molecular Devices, Sunnyvale, Calif.).
(§4) Compounds were screened by inspecting the IC-50 values of the drug candidate on the proliferation assay. […] Potencies of the investigated compounds in inhibiting TF-1 cell proliferation were evaluated by comparing their IC-50 values relative to lidocaine. Due to the ability of TF-1 cells to be stimulated by a variety of cytokines, specificity can be evaluated by comparing IL-5 and EPO stimulated cell cultures IC-50 values. Specificity or differential inhibition (Di) values can be calculated for the investigated compounds using equation 1. Di=EPO IC-50/IL5 IC-50 (equation 1)

[2] = test system: EPO stimulated TF-1 cells; assay: TF-1 cell proliferation assay, EPO stimulated cultures; type: cell-based; conditions: Homo sapiens
Procedure: as §1, §2, §3, §4

[3] = nebulized, Hunt, cited from earlier work
IL-5 = molecular target: T1, IL-5 (Homo sapiens, UniProt P05113); conditions: patients with mild asthma; Leckie, 2000; cited from earlier work
T1 construct: Administration of the anti-IL-5 drug, mepolizumab, to patients with mild asthma reduced blood and sputum eosinophils; host or cells: endogenous IL-5 in human patients with mild asthma (in vivo)
T1 sequence (P05113 20-134): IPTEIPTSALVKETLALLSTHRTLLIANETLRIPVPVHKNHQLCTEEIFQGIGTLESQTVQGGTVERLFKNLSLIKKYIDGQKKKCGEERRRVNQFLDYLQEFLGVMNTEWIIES

[4] = Homo sapiens, TF-1, 72 h, Table 6, TF-1 cells with IL-5 (5 ng/mL), 72 hours, read-out: IL-5 IC-50
[5] = Homo sapiens, TF-1, 72 h, Table 7, TF-1 cells with IL-5, 72 hours, read-out: IL-5 IC-50
[6] = Table 7, TF-1 cells with EPO (2 units/mL), 72 hours, read-out: EPO IC-50
[7] = Homo sapiens, TF-1, text, IL-5 stimulated TF-1 cells, read-out: IL-5 IC-50

Molecule	IC50 [1, 4] [µM]	IC50 [1, 5] [µM]	Di ([1]; Table 7)	IC50 [2, 6] [µM]	further results
C[C@@H](O)[C@H](NC(=O)c1ccccc1)C(=O)O [Compound 11, N-Benzoyl-L-Threonine]	30	–	–	–	–
CN1CCOc2cc(C(=O)O)ccc21 [Compound 21, 4-methyl-3,4-dihydro 2H-1,4-benoxazine 7 carboxylic acid]	92	91.8	1.412	130	–
CCCCOc1cc(C(=O)OCCN(CC)CC)ccc1N [Compound 24, Benoxinate, reference compound]	98	–	–	–	–
Cc1ccccc1C(=O)NCc1cccnc1 [Compound 20, 2-methyl-N-(3-pyridinylmethyl)benzamide]	90	90	1.700	153	–
CC1COc2c(F)c(F)cc3c(=O)c(C(=O)O)cn1c23 (stereo not drawn) [Compound 7, 9,10-Difluoro-2,3-dihydro-3-methyl-7-oxo-7H-pyrido[1,2,3-DE]-1,4-benzoxazine-6-carboxylic acid]	20	–	–	–	–
CCCCCC(=O)Nc1c(C)cccc1C [Compound 15, N-(2,6-dimethylphenyl)hexanamide]	62	62	2.210	137	IL-5 IC-50 compared with lidocaine [1]: lower than lidocaine's
CCCCN1CCCCC1C(=O)Nc1c(C)cccc1C (stereo not drawn) [Compound 25, Bupivicaine Hydrochloride, reference compound]	107	–	–	–	–
Cc1cccc(C)c1NC(=O)C(C)(C)C [Compound 18, N-(2,6-dimethylphenyl)pivalamide]	79	–	–	–	IL-5 IC-50 compared with lidocaine [1]: lower than lidocaine's
C[C@@H]1C[C@H]2[C@@H]3CCC4=CC(=O)C=C[C@]4(C)[C@@]3(F)[C@@H](O)C[C@]2(C)[C@@]1(O)C(=O)CO [Compound 2, Dexamethasone, reference compound]	9	7	5.136	38	Di value ([1]; EPO IC-50/IL5 IC-50): 5.136 and 5.14; IC50 [1, 7]: 4 µM
O=C(O)C1CNc2ccccc2O1 (stereo not drawn) [Compound 12, 3,4-Dihydro-2H-1,4-Benzoxazine-2-Carboxylic Acid]	38	–	–	–	–
CN1CCOc2cc(Br)ccc21 [Compound 8, 7-Bromo-4-methyl-3,4-dihydro-2H-1,4-benzoxazine]	24	–	–	–	–
CCN(CC)CC(=O)Nc1c(C)cccc1C [Compound 1, Lidocaine, reference compound]	147	147	1.361	200	IC50 ([1]; Homo sapiens, TF-1, text b313, TF-1 cell proliferation, read-out: IC-50 (fifty percent growth inhibition)): 147 µM; IC50 [1, 7]: 140 µM; prednisolone-dependent patients able to eliminate or significantly reduce steroid usage [3]; 1996: 17 out of 20; blood eosinophil levels ([3]; placebo controlled study, mild to moderate asthma, 2004): decreased
CCN(CC)CC(=O)Nc1c(C)cccc1C.Cl [Compound 19, Lidocaine HCL, reference compound]	–	–	3.286	–	IC50 ([1]; Homo sapiens, TF-1, 72 h, read-out: IL-5 IC-50): 84 µM; IC50 ([2]; TF-1, 72 h, read-out: EPO IC-50, Table 7, TF-1 cells with EPO (2 units/mL)): 276 µM
CCCCOc1cc(C(=O)NCCN(CC)CC)c2ccccc2n1 [Compound 13, Dibucaine Hydrochloride, reference compound]	48	–	–	–	–
O=C(O)COC1Cc2ccccc2CN1 (stereo not drawn) [Compound 10, 3-Carboxymethoxy-1,2,3,4-Tetrahydroisoquinol]	26	–	–	–	–
CN1CCC(=C2c3ccccc3CC(=O)c3sccc32)CC1 [Compound 3, Ketotifen fumarate, reference compound]	9	9	1.000	9	IC50 [1, 7]: 9 µM
Cc1cccc(C)c1NC(=O)c1ccnc2ccccc12 [Compound 9, N-(2,6-dimethylphenyl)quinoline-4-carboxamide]	24	–	–	–	IL-5 IC-50 compared with lidocaine [1]: lower than lidocaine's
O=C(CN1CCN(c2ncccn2)CC1)Nc1ccc(F)cc1F [Compound 5, N-(2,4-difluorophenyl)-2-(4-pyrimidin-2-ylpiperazinyl)ethanamide]	5	–	–	–	IC50 [1, 7]: 5 µM
Cc1cccc(C)c1NC(=O)CCC(C)C [Compound 26, 4-methyl-N-(2,6-dimethylphenyl)-pentanamide]	119	–	–	–	IL-5 IC-50 compared with lidocaine [1]: lower than lidocaine's
CC(C)(C)OC(=O)Nc1ccc(C(=O)NCC(=O)O)cc1 [Compound 6, Boc-4-aminohippuric Acid]	19	–	–	–	–
Nc1ccc(C(=O)NCc2cccnc2)cc1 [Compound 4, 4-Amino-N-pyridin-3-yl-methyl-benzamide]	1.3	1.3	1.471	1.9	IC50 [1, 7]: 1.3 µM
CCN(CC)CCOC(=O)c1ccc(N)cc1 [Compound 17, Procaine, reference compound]	71	71	1.535	109	–
Cc1cccc(C)c1NC(=O)Cc1ccccc1 [Compound 22, N-(2,6-dimethylphenyl)-2-phenylacetamide]	96	95.5	1.351	129	IL-5 IC-50 compared with lidocaine [1]: lower than lidocaine's
c1ccc2c(c1)OCC(C1=NCCN1)O2 (stereo not drawn) [Compound 23, Idazoxan Hydrochloride, reference compound]	97	–	–	–	–
Cc1cccc(C)c1NC(=O)C(C)N (stereo not drawn) [Compound 14, Tocainide HCL, reference compound]	49	–	–	–	–
Nc1ccc2c(c1)OCCO2 [Compound 16, 3,4-Ethylenedioxyaniline]	69	69	1.971	136	–
CC[N+](CC)(CC(=O)Nc1c(C)cccc1C)Cc1ccccc1 [Compound 28, Denatonium Saccharide]	136	–	–	–	–
Disopyramide [Compound 27, reference compound]	–	–	–	–	IC50 ([1]; Table 6, TF-1 cells with IL-5 (5 ng/mL), 72 hours, read-out: IL-5 IC-50): 129 µM
mepolizumab: anti-IL-5 drug (antibody, chains of the INN, looked up, V domains shown) VH: QVTLRESGPALVKPTQTLTLTCTVSGFSLTSYSVHWVRQPPGKGLEWLGVIWASGGTDYNSALMSRLSISKDTSRNQVVLTMTNMDPVDTATYYCARDPPSSLLRLDYWGRGTPVTVSS VL: DIVMTQSPDSLAVSLGERATINCKSSQSLLNSGNQKNYLAWYQQKPGQPPKLLIYGASTRESGVPDRFSGSGSGTDFTLTISSLQAEDVAVYYCQNVHSFPFTFGGGTKLEIK	–	–	–	–	blood and sputum eosinophils (IL-5): reduced
